Target: SARS2 coronavirus 3CL protease (Severe acute respiratory syndrome coronavirus 2 (2019-nCoV) (SARS-CoV-2), UniProt P0DTD1)
Assay: SARS2 Coronavirus 3CL Protease Assay (FRET)
Type: biochemical
Details: SARS2 3CLPro FRET assay; 5 nM enzyme, 30 min pre-incubation with compound, 15 uM peptide substrate, 4 h room temperature
Procedure: The enzymatic activity of SARS2 coronavirus 3CL protease was determined in a FRET (fluorescence resonance energy transfer)-based assay measuring the cleavage of a peptide substrate by recombinantly expressed and purified enzyme. Cleavage of the peptide SEQ ID NO:1 (CPC Scientific) by SARS2 3CL protease was measured in reaction buffer (50 mM Hepes pH 7.5, 0.01% Triton X-100, 0.01% BSA, 2 mM DTT). SARS2 3CL protease (5 nM final concentration) was pre-incubated with compound for 30 minutes before reaction initiation with peptide substrate (15 uM final concentration). Room temperature reactions (4 h) were quenched by addition of a high dose of inhibitor and read on an appropriate plate reader (excitation wavelength=495 nm, emission wavelength=520 nm). Data were analyzed by a standard 4 parameter fit to determine IC50 values.

## CNC(=O)C(=O)[C@H](CCC(C)(F)F)NC(=O)C1C2CC(C)(C)C2CN1C(=O)[C@@H](NC(=O)OC)C(C)(C)C (single isomer, unassigned) [Example 95, methyl ((S)-1-((1S,2S,5S or 1R,2R,5R)-2-(((S)-6,6-difluoro-1-(methylamino)-1,2-dioxoheptan-3-yl)carbamoyl)-6,6-dimethyl-3-azabicyclo[3.2.0]heptan-3-yl)-3,3-dimethyl-1-oxobutan-2-yl)carbamate]
  IC50: 5 nM

## COC(=O)N[C@H](C(=O)N1CC[C@]2(C[C@H]1C(=O)N[C@@H](CCC(C)(F)F)C(=O)C(=O)NC1CC1)CC2(F)F)C(C)(C)C [Example 94, methyl ((S)-1-((3S,5S)-5-(((S)-1-(cyclopropylamino)-6,6-difluoro-1,2-dioxoheptan-3-yl)carbamoyl)-1,1-difluoro-6-azaspiro[2.5]octan-6-yl)-3,3-dimethyl-1-oxobutan-2-yl)carbamate]
  IC50: 9 nM

## CNC(=O)C(=O)[C@H](CCC(C)(F)F)NC(=O)[C@@H]1[C@@H]2[C@H](CN1C(=O)[C@@H](NC(=O)OC)C(C)(C)C)C21CCOCC1 [Example 40, Methyl ((S)-1-((1R,2S,5S)-2-(((S)-6,6-difluoro-1-(methylamino)-1,2-dioxoheptan-3-yl)carbamoyl)tetrahydro-3-azaspiro[bicyclo[3.1.0]hexane-6,4′-pyran]-3-yl)-3,3-dimethyl-1-oxobutan-2-yl)carbamate]
  IC50: 12 nM

## CNC(=O)C(=O)[C@H](CCC(C)(F)F)NC(=O)[C@@H]1[C@H]2CCC[C@H]2CN1C(=O)[C@@H](NC(=O)OCC(F)(F)F)C(C)(C)C [Example 122, 2,2,2-trifluoroethyl ((S)-1-((1S,3aR,6aS)-1-(((S)-6,6-difluoro-1-(methylamino)-1,2-dioxoheptan-3-yl)carbamoyl)hexahydrocyclopenta[c]pyrrol-2(1H)-yl)-3,3-dimethyl-1-oxobutan-2-yl)carbamate]
  IC50: 34 nM

## CNC(=O)C(=O)[C@H](CCC(C)(F)F)NC(=O)[C@@H]1CC2(CCC2(F)F)CN1C(=O)[C@@H](NC(=O)OC)C(C)(C)C (single isomer, unassigned) [Example 103, methyl ((S)-1-((4(S or R),7S)-7-(((S)-6,6-difluoro-1-(methylamino)-1,2-dioxoheptan-3-yl)carbamoyl)-1,1-difluoro-6-azaspiro[3.4]octan-6-yl)-3,3-dimethyl-1-oxobutan-2-yl)carbamat]
  IC50: 32 nM

## COC(=O)N[C@H](C(=O)N1CCC(O)(C(F)(F)F)C[C@H]1C(=O)N[C@@H](CCC(C)(F)F)C(=O)C(=O)NC1CC1)C(C)(C)C (single isomer, unassigned) [Example 58, Methyl ((S)-1-((2S, 4(R or S))-2-(((S)-1-(cyclopropylamino)-6,6-difluoro-1,2-dioxoheptan-3-yl)carbamoyl)-4-hydroxy-4-(trifluoromethyl)piperidin-1-yl)-3,3-dimethyl-1-oxobutan-2-yl)carbamate]
  IC50: 347 nM

## COC(=O)N[C@H](C(=O)N1CC2(CCCCC2)C[C@H]1C(=O)N[C@@H](CCC(C)(F)F)C(=O)C(N)=O)C(C)(C)C [Example 78, Methyl ((S)-1-((S)-3-(((S)-1-amino-6,6-difluoro-1,2-dioxoheptan-3-yl)carbamoyl)-2-azaspiro[4.5]decan-2-yl)-3,3-dimethyl-1-oxobutan-2-yl)carbamate]
  IC50: 12 nM

## CCOC(=O)N[C@H](C(=O)N1C[C@@H]2CCC[C@@H]2[C@H]1C(=O)N[C@@H](CCC(C)(F)F)C(=O)C(=O)NC)C(C)(C)C [Example 120, ethyl ((S)-1-((1S,3aR,6aS)-1-(((S)-6,6-difluoro-1-(methylamino)-1,2-dioxoheptan-3-yl)carbamoyl)hexahydrocyclopenta[c]pyrrol-2(1H)-yl)-3,3-dimethyl-1-oxobutan-2-yl)carbamate]
  IC50: 21 nM

## CCC1CCN(C(=O)[C@@H](NC(=O)OC)C(C)(C)C)C1C(=O)N[C@@H](CCC(C)(F)F)C(=O)C(=O)NC1CC1 (single isomer, unassigned) [Example 72, Methyl ((S)-1-((2(R or S),3(R or S))-2-(((S)-1-(cyclopropylamino)-6,6-difluoro-1,2-dioxoheptan-3-yl)carbamoyl)-3-ethylpyrrolidin-1-yl)-3,3-dimethyl-1-oxobutan-2-yl)carbamate]
  IC50: 48 nM

## COC(=O)N[C@H](C(=O)N1CC2(C[C@H]1C(=O)N[C@@H](CCC(C)(F)F)C(=O)C(=O)NC1CC1)CC2(F)F)C(C)(C)C (single isomer, unassigned) [Example 32, Methyl ((S)-1-((3(R or S),6S)-6-(((S)-1-(cyclopropylamino)-6,6-difluoro-1,2-dioxoheptan-3-yl)carbamoyl)-1,1-difluoro-5-azaspiro[2.4]heptan-5-yl)-3,3-dimethyl-1-oxobutan-2-yl)carbamate]
  IC50: 15 nM

## CNC(=O)N[C@H](C(=O)N1CC2(CCCCC2)C[C@H]1C(=O)N[C@@H](CCC(C)(F)F)C(=O)C(=O)NC1CC1)C(C)(C)C [Example 75, (S)-N-((S)-1-(cyclopropylamino)-6,6-difluoro-1,2-dioxoheptan-3-yl)-2-((S)-3,3-dimethyl-2-(3-methylureido)butanoyl)-2-azaspiro[4.5]decane-3-carboxamide]
  IC50: 82 nM

## CCNC(=O)C(=O)[C@H](CCC(C)(F)F)NC(=O)[C@@H]1[C@H]2CCC[C@H]2CN1C(=O)[C@@H](NC(=O)OC)C(C)(C)C [Example 101, methyl ((S)-1-((1S,3aR,6aS)-1-(((S)-1-(ethylamino)-6,6-difluoro-1,2-dioxoheptan-3-yl)carbamoyl)hexahydrocyclopenta[c]pyrrol-2(1H)-yl)-3,3-dimethyl-1-oxobutan-2-yl)carbamate]
  IC50: 22 nM

## COC(=O)N[C@H](C(=O)N1CCC(C2CC2)C1C(=O)N[C@@H](CCC(C)(F)F)C(=O)C(=O)NC1CC1)C(C)(C)C (single isomer, unassigned) [Example 23, Methyl ((S)-1-((2(S or R),3(R or S))-3-cyclopropyl-2-(((S)-1-(cyclopropylamino)-6,6-difluoro-1,2-dioxoheptan-3-yl)carbamoyl)pyrrolidin-1-yl)-3,3-dimethyl-1-oxobutan-2-yl)carbamate]
  IC50: 10 nM

## CNC(=O)C(=O)[C@H](CCC(C)(F)F)NC(=O)C1CC(C(F)(F)F)CCN1C(=O)C(NC(=O)OC)C12CC(F)(C1)C2 (single isomer, unassigned) [Example 115, methyl ((R or S)-2-((2(S or R),4(R or S))-2-(((S)-6,6-difluoro-1-(methylamino)-1,2-dioxoheptan-3-yl)carbamoyl)-4-(trifluoromethyl)piperidin-1-yl)-1-(3-fluorobicyclo[1.1.1]pentan-1-yl)-2-oxoethyl)carbamate]
  IC50: 35 nM

## COC(=O)N[C@H](C(=O)N1C[C@H]2[C@@H]([C@H]1C(=O)N[C@@H](CCC(C)(F)F)C(=O)C(=O)NC1CC1)C(C)(C)C2(C)C)C(C)(C)C [Example 36, Methyl ((S)-1-((1R,2S,5S)-2-(((S)-1-(cyclopropylamino)-6,6-difluoro-1,2-dioxoheptan-3-yl)carbamoyl)-6,6,7,7-tetramethyl-3-azabicyclo[3.2.0]heptan-3-yl)-3,3-dimethyl-1-oxobutan-2-yl)carbamate]
  IC50: 8.2 nM

Source: patent US20250223259A1, “PROTEASE INHIBITORS FOR TREATING OR PREVENTING CORONAVIRUS INFECTION” (Merck Sharp & Dohme LLC, priority 2022, published 2025)
